Data set [1] concerns SIRT2. Put plainly: SIRT2 transcription, semi-quantitative RT-PCR in human epidermal progenitors. Format: cell-based. The note with it: 72 h. The protocol: Human neonatal epidermal progenitors (Thermo Fisher Scientific, NY) were seeded in 6-well plates at a density of 2×10^5 cells/well. Each well received 2 ml of Epilife media containing 60 μM calcium chloride (Thermo Fisher Scientific, NY). Plates were incubated in a humidified chamber at 37 degrees Celsius and 5 percent CO2. Twenty-four hours later, cells were treated with various concentrations of oxyresveratrol or decapeptide-12 dissolved in PBS containing 5 percent DMSO. Control wells received vehicle only (5 percent DMSO and PBS). Final concentration of DMSO in each well was 0.05 percent.
After a 72 hour incubation period, cells were trypsinized and total RNA extracted, using RNeasy kit (Qiagen, Valencia, Calif.) according to the manufacturer's protocol.
RNA concentration was determined using nanodrop (Thermo fisher scientific, NY). Two μg of total RNA were used to synthesize cDNA using oligo dT primers and TaqMan reverse transcription reagents (Thermo fisher scientific, NY). The reaction was carried out in DNA Engine Peltier Thermal Cycler (Bio-Rad, Hercules, Calif.). The annealing temperature was 25 degrees Celsius for 10 minutes, followed by first strand synthesis at 48 degrees Celsius for 1 hour, and heat inactivation at 95 degrees Celsius for 5 minutes.
The SIRT1-7 primers (table 1) were designed using Primer3. The semi-quantitative PCR reactions were performed on a DNA Engine Peltier Thermo Cycler (Bio-Rad, Hercules, Calif.). PCR was carried under the following conditions: denaturation at 94 degrees Celsius for 2 minutes and primer extension at 54 degrees Celsius for 30 seconds in 34 cycles for SIRT 1-7 and the housekeeping gene 18S.
Samples were run and resolved on a 1.5 percent agarose gel containing 0.5 μg/ml of ethidium bromide and imaged using the FluorChem HD2 Imaging System (Protein simple, San Jose, Calif.). Densitometry analysis was carried out using the AlphaEase FC software (Protein simple, San Jose, Calif.). Intensity ratios were calculated as the intensity value for each gene divided by the intensity value of the internal control gene 18S.
The effect of the decapeptides P4, P4A, P4B, and P4C upon the transcription levels of sirtuins 1-7 was evaluated. Table 4 summarizes transcription levels for all four decapeptides with the corresponding genes, at tested concentrations of: 10, 30, 50, 100, and 300 (all in μM).

The nature of data set [2]: in vitro. Format: cell-based. To be noted: human, human epidermal progenitors. As for the experimental part: Proliferation rates were determined using a TACS® MTT Cell Proliferation Kit (R&D systems, Minneapolis, Minn.). Cells were seeded at 2.5×10^4/well in 96-well plates in a humidified atmosphere with 5 percent CO2 at 37 degrees Celsius. Twenty-four hours later, decapeptide-12 or oxyresveratrol were added to the corresponding wells at varying concentrations (0, 3, 10, 30, 100, 300, and 1000 μM), and cultures were then incubated for 72 hours. The remainder of the procedure was performed following the manufacturer's protocol.
(§1) Proliferation rates for three human cell lines (epidermal progenitors, melanoblasts, and fibroblasts) were determined using a TACS® MTT Cell Proliferation Kit. Cells were seeded at 2.5×10^4/well in 96-well plates in a humidified atmosphere with 5 percent CO2 at 37 degrees Celsius. Twenty-four hours later, the decapeptides were added to the corresponding wells at varying concentrations and incubated for 72 hours. The remainder of the procedure was performed following the manufacturer's protocol.

Data set [3] concerns melanoblasts. The data set can be described thus: MTT cell proliferation assay, melanoblasts. It counts as cell-based, human. To be noted: 100 μM, 72-hour incubation. As for the experimental part: as §1
For orientation: Formazan colour is commonly taken as a measure of viable cells.

A short description of data set [4]: MTT cell proliferation assay, melanoblasts. Format: cell-based, human. To be noted: human, MTT, 72 h, read-out: melanoblast proliferation rate after 72 hours. As for the experimental part:
as §1

In data set [5] the test system is fibroblasts. Put plainly: MTT cell proliferation assay, fibroblasts. It counts as cell-based, human. The note with it: 100 μM, 72-hour incubation. In short, it runs like this: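 Human fibroblasts and melanoblasts were seeded at 2.5×10^4/well at 37 degrees Celsius, 5 percent CO2. Proliferation was read by MTT kit per manufacturer's protocol.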

SMILES strings stand for the structures. Peptide text beside a SMILES is read from it.

On to `CCCCCCCCCCCCCCCC(=O)N[C@@H](Cc1ccc(O)cc1)C(=O)N[C@@H](CCCNC(=N)N)C(=O)N[C@@H](CO)C(=O)N[C@@H](CCCNC(=N)N)C(=O)N[C@@H](CCCCN)C(=O)N[C@@H](Cc1ccc(O)cc1)C(=O)N[C@@H](CO)C(=O)N[C@@H](CO)C(=O)N[C@@H](Cc1c[nH]c2ccccc12)C(=O)N[C@@H](Cc1ccc(O)cc1)C(N)=O` [P4A, Palmitoyl-YRSRKYSSWY-amide] (HELM PEPTIDE1{[CCCCCCCCCCCCCCCC(=O)[*:2]].Y.R.S.R.K.Y.S.S.W.Y.[am]}$$$$V2.0), for which the “SIRT2 transcription increase relative to control” value in data set [1] (10 μM) is given as 14 ± 1%; in data set [1] (30 μM), 15 ± 1%; in data set [1] (50 μM) it was 6 ± 3%; in data set [1] (100 μM) it was 48 ± 1%; in data set [1] (300 μM) it was 30 ± 5%. In addition, the viability at 72 h, 3 µM in data set [2] is 99 ± 1%; in data set [4] (3 μM) it was 100%. Also, the viability at 72 h, 10 µM in data set [2] turned out to be 99 ± 1%; in data set [4] (10 μM), 100%. Also, the viability at 72 h, 30 µM in data set [2] turned out to be 98 ± 1%; in data set [4] (30 μM) it was 99 ± 1%. The results for the viability at 72 h, 50 µM in data set [2] and in data set [4] (50 μM) were 97 ± 1% and 98 ± 1%, respectively. For the same compound, the viability at 72 h, 100 µM in data set [2] and in data set [4] (100 μM) was 97 ± 2% throughout. Besides, the figures for the viability at 72 h, 300 µM in data set [2] and in data set [4] (300 μM) were 96 ± 2% and 97 ± 2%, respectively. The viability at 72 h, 500 µM in data set [2] and in data set [4] (500 μM) was 96 ± 2% each time. Also, the viability at 72 h, 1000 µM in data set [2] came to 94 ± 2%; in data set [4] (1000 μM), 95 ± 2%. Besides, the “reduction in the proliferation rate” value in data set [3] and in data set [5] was 3% each time.
